Like-named read-outs stand apart in the source and are kept apart here.
How the values were obtained:
[1] = molecular target: AmpC β-lactamase from E. coli (Escherichia coli, UniProt P00811); experiment: biochemical; type: biochemical
[2] = molecular target: T1, TEM-1 β-lactamase from E. coli (Escherichia coli, UniProt P62593); experiment: Inhibition of TEM-1 β-lactamase, spectrophotometric assay (FAP substrate); type: biochemical
T1 construct: gift: Natalie Strynadka, University of Alberta

[3] = system: E. coli RYC1000 harboring a plasmid coding for a mutant of AmpC from Enterobacter (ECR-AmpCEnM); experiment: microbe, parasite or virus in culture; type: cell-based, Escherichia coli; details: Enterobacter, read-out: MIC of amoxicillin (AX)
Protocol: (§1) After incubation, the growth of the cells was visually inspected. The minimum inhibitory concentration (MIC) is the lowest concentration where there no cell growth was observed.
(§2) The following strains were used: Enterobacter cloacae cell line with derepressed β-lactamase production (Ent-Der), and Escherichia coli RYC1000 (araD139 D lacU169 rpsL D rib7 thiA gyrA recA56) cell lines, harboring the plasmid pBGS19 (with no β-lactamase), or the β-lactamase containing plasmids pBGAmpC (AmpC β-lactamase from E. coli; Eco-AmpC), or pBGAmpC-MHN (AmpC β-lactamase from Enterobacter cloacae; Eco-AmpCEnt). […] TEM-10 and TEM-24 differ from TEM-1 due to the following point substitutions: TEM-10 (R164S, E240K); TEM-24 (L102K, L162S, S235T, A237K). TEM-10 and TEM-24 also differ from TEM-1 in being extended spectrum enzymes (i.e., they react with a greater range of substrates than TEM-1). Also tested were clinical isolates of Pseudomonas aeruginosa. All bacterial strains and plasmids are available from Jesus Blazquez and Fernando Baquero, Servicio de Microbiologia, Hospital Ramon y Cajal, National Institute of Health, Madrid, Spain.
(§3) Several ratios, including 1:1, 2:1, 4:1, and 1:3, of β-lactam antibiotic (amoxicillin (AX) or ceftazidime (CAZ)) to boronic acid compound were used in the assays. Tazobactam (TAZO), a clinically used β-lactamase inibitor, was used as a positive control.

[4] = system: E. coli RYC1000 harboring pBGTEM-10 producing TEM-10 β-lactamase (EC-T10); experiment: microbe, parasite or virus in culture; type: cell-based, Escherichia coli; details: Escherichia coli, read-out: MIC of amoxicillin (AX)
Protocol: as §1, §2, §3

[5] = system: E. coli RYC1000 harboring plasmid pBGAmpC-MHN (AmpC β-lactamase of Enterobacter cloacae); experiment: microbe, parasite or virus in culture; type: cell-based, Escherichia coli; on MIC of ceftazidime plus inhibitor: values in µg/ml
Protocol: as §1, §2, §3

[6] = system: E. coli RYC1000 harboring pBGTEM-1 producing TEM-1 β-lactamase (EC-T1); experiment: microbe, parasite or virus in culture; type: cell-based, Escherichia coli; details: Escherichia coli, read-out: MIC of amoxicillin (AX)
Protocol: as §1, §2, §3

[7] = system: E. coli RYC1000 harboring pBGAmpC-E. coli producing AmpC (ECR-AmpCEc); experiment: microbe, parasite or virus in culture; type: cell-based, Escherichia coli; details: Escherichia coli, read-out: MIC of amoxicillin (AX)
Protocol: as §1, §2, §3

[8] = system: β-lactamase derepressed strain of Enterobacter cloacae (Ent-Der); experiment: microbe, parasite or virus in culture; type: cell-based; on MIC of ceftazidime plus inhibitor: values in µg/ml
Protocol: as §1, §2, §3

[9] = system: E. coli RYC1000 harboring plasmid pBGTEM-24 (TEM-24 β-lactamase); experiment: microbe, parasite or virus in culture; type: cell-based, Escherichia coli; on MIC of ceftazidime plus inhibitor: values in µg/ml
Protocol: as §1, §2, §3

[10] = system: E. coli RYC1000 harboring plasmid pBGS19 (no β-lactamase); experiment: microbe, parasite or virus in culture; type: cell-based, Escherichia coli; details: pBGS19
Protocol: as §1, §2, §3

[11] = Table 5, as described in Example 2, read-out: Ki AmpC
[12] = Enterobacter cloacae, read-out: MIC of amoxicillin (AX)
[13] = Tables 2A/2B, pH 7.0, 25° C., 100 μM cephalothin, read-out: Ki E. coli AmpC
[14] = Tables 2A/2B, pH 7.0, 25° C., 100 μM FAP, N.I. = no inhibition observed at an inhibitor concentration of 100 μM, read-out: Ki E. coli TEM-1

T1 sequence (P62593 24-286 limits assumed): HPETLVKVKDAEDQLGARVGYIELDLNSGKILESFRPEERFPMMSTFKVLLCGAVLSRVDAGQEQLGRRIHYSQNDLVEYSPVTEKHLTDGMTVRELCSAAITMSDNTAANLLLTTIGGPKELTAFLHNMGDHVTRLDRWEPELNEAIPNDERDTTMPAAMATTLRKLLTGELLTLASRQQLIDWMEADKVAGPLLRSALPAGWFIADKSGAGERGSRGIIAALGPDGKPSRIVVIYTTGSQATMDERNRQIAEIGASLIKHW
AmpC β-lactamase from E. coli, sequence (P00811 20-377): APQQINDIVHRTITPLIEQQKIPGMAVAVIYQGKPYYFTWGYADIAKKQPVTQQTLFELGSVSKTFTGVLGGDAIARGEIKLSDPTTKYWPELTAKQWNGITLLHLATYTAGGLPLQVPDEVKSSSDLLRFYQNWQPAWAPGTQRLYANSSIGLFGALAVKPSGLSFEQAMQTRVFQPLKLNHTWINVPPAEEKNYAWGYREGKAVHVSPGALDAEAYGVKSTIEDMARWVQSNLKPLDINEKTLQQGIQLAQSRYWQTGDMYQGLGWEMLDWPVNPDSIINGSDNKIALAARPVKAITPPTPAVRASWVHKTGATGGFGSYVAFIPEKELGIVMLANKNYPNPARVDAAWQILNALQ

OB(O)c1ccc(Br)cc1 [4BPB, 4-bromophenylboronic acid]
Ki ([1]; Ki E. coli AmpC): 2.6 µM | Ki [2]: 31.3 µM

Cc1csc(B(O)O)c1
Ki [1, 11]: 0.5 ± 0.05 µM

OB(O)c1cc2ccccc2o1 [BZBF2B, benzo[b]furan-2-boronic acid]
activity relative to furan-2-boronic acid parent (AmpC) [1]: about 1000 fold | Ki ([1]; Ki E. coli AmpC): 0.07 µM | Ki [2]: 8 µM

CC1(C)S[C@@H]2[C@H](NC(=O)[C@H](N)c3ccc(O)cc3)C(=O)N2[C@H]1C(=O)O [AX, amoxicillin, reference compound]
MIC [3]: > 2050 µg/mL | MIC [4]: > 2050 µg/mL | MIC [5, 12]: > 2050 µg/mL | MIC [6]: > 2050 µg/mL | MIC [7]: > 2050 µg/mL | MIC [8, 12]: > 2050 µg/mL

OB(O)c1ccc(Cl)s1 [5CLTH2B, 5-chlorothiophene-2-boronic acid]
MIC of ceftazidime plus inhibitor ([5]; Table 3A, AmpC-MHN, proportion 4/1, given as CAZ/inhibitor): 4/1 | MIC of inhibitor used alone without ceftazidime ([5]; Table 3B, AmpC-MHN): 128 µg/mL | MIC of ceftazidime plus inhibitor ([9]; Table 3A, proportion 4/1, given as CAZ/inhibitor): 128/32 | MIC of inhibitor used alone without ceftazidime ([9]; Table 3B): 128 µg/mL | MIC of ceftazidime plus inhibitor ([10]; Table 3A, proportion 4/1): <0.25 µg/mL | MIC of inhibitor used alone without ceftazidime ([10]; Table 3B): 128 µg/mL | Ki [1, 13]: 1.4 µM | Ki [2]: 17 µM | MIC of ceftazidime plus inhibitor ([8]; Table 3A, Ent. Der., proportion 4/1, given as CAZ/inhibitor): 32/8 | MIC of inhibitor used alone without ceftazidime ([8]; Table 3B, Ent. Der.): 128 µg/mL

OB(O)c1ccc(C(F)(F)F)cc1 [4TFMB]
Ki ([1]; pH 7, read-out: Ki E. coli AmpC): 9 µM | Ki [2, 14]: 6.3 µM

O=Cc1ccccc1B(O)O [2FORMB, 2-formylphenylboronate, reference compound]
Ki [1, 13]: 62 µM | Ki [2, 14]: > 100 µM

OB(O)c1ccc2ccccc2c1 [2-naphthylboronic acid]
Ki ([1]; Example 1, read-out: Ki for AmpC): 8.5 ± 1.8 µM

O=C(O)/C=C/c1ccc(B(O)O)cc1
Ki [1, 11]: 4.2 ± 1.1 µM

O=Cc1ccsc1B(O)O [3FTH2B, 3-formylthiophene-2-boronic acid]
Ki [1, 13]: 3.5 µM | Ki E. coli TEM-1 ([2]; Tables 2A/2B, pH 7.0, 25° C., 100 μM FAP, N.I. = no inhibition observed at an inhibitor concentration of 100 μM): N.I.

CN1C(=O)/C(=N\Nc2cccc(B(O)O)c2)c2ccccc2C1=O
Ki [1, 11]: 0.075 µM

OB(O)c1cc(N=Nc2cccc(C(F)(F)F)c2)ccc1O [HFAB, 2-hydroxy-5-(3-(trifluoromethyl)phenylazo) benzeneboronic acid]
Ki [1, 13]: 1.3 µM

OB(O)c1ccccc1 [2FDB, phenylboronic acid, reference compound]
Ki [1, 13]: 8 µM | Ki [2]: > 100 µM

OB(O)[C@H]1CCOC1 [(S)-3-tetrahydrofuranylboronic acid]
Ki ([1]; read-out: Ki for AmpC): 15.8 ± 0.8 µM

OB(O)c1ccc2[nH]ccc2c1
Ki [1, 11]: 10.9 ± 0.6 µM

OB(c1ccccc1)c1ccccc1 [DFB, diphenylboronic acid]
inhibition of AmpC (in words) [1]: lacks measurable inhibition | Ki [1, 13]: > 500 µM | Ki [2, 14]: > 100 µM

Reference: US6417174B1, “Inhibitors of β-lactamases and uses therefor” (Northwestern University, priority 1997, dated 2002)
